Kd data for two compounds are collected here from paper PMC4774911, “Biochemical Screening of Five Protein Kinases from Plasmodium falciparum against 14,000 Cell-Active Compounds” (PLoS ONE, 2016).

pKd: −log10 of the molar value. Several values for one entry are separate records, joined by “and”; a condition that tells them apart may be missing. Identical values can stand only once.

Targets include AAK1 (Homo sapiens, UniProt Q2M2I8); CAMK2G (Homo sapiens, UniProt Q13555); ERN1 (Homo sapiens, UniProt O75460); OXSR1 (Homo sapiens, UniProt O95747).
Assay in all cases: biochemical
What all share (parameters): endogenous in cells; host or cells: K562 cell extract; species or system K562 (extract); replicate k of n = 2 (each experiment ID is one independent experiment; two experiment IDs per compound)
Common to all, as to conditions: read-out: KDapp

In the next test the target is T1, BMPR2 (Homo sapiens, UniProt Q13873).
T1 sequence (Q13873 1-1038): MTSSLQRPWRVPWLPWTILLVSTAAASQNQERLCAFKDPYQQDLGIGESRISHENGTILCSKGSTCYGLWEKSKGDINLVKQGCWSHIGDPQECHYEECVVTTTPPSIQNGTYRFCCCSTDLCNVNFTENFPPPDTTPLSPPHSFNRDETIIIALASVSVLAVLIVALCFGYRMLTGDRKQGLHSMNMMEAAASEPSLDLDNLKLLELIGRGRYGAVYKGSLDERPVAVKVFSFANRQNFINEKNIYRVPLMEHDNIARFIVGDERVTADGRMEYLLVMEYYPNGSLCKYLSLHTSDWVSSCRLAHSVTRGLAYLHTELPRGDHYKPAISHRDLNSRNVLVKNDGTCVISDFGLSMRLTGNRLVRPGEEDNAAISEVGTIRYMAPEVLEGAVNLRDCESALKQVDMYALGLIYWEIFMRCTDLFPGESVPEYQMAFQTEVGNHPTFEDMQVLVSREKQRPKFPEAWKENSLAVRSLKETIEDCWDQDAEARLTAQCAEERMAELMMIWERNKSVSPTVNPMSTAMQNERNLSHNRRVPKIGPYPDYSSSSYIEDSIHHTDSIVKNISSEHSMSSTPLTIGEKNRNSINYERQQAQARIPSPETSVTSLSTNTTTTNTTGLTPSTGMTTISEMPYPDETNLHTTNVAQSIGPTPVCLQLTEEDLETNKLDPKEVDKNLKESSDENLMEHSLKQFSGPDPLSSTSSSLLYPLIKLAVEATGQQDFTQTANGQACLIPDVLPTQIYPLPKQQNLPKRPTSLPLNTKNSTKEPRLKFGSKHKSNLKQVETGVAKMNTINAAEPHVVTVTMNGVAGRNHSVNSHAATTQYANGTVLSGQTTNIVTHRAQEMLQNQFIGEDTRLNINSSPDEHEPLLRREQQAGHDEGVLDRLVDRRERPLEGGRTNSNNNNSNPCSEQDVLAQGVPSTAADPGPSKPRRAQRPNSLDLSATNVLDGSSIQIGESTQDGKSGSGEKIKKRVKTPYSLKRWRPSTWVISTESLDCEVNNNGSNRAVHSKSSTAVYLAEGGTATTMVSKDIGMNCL

For a further test, the target named is T2, PKMYT1 (Homo sapiens, UniProt Q99640).
T2 sequence (Q99640 1-499): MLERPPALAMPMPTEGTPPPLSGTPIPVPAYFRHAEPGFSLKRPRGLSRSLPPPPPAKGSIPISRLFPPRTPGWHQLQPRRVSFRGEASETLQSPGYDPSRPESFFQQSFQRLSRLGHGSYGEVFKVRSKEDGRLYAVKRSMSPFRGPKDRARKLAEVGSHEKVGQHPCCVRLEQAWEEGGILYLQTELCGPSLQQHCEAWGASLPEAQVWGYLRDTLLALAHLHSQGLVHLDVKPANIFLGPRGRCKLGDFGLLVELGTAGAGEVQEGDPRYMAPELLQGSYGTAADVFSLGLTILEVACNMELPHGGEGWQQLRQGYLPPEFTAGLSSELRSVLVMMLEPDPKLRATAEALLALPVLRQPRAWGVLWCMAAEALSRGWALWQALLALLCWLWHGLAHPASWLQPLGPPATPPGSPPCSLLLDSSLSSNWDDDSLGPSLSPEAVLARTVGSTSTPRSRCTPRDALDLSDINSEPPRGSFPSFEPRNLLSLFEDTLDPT

A further test has as its target T3, MAPKAPK5 (Homo sapiens, UniProt Q8IW41).
T3 sequence (Q8IW41 1-473): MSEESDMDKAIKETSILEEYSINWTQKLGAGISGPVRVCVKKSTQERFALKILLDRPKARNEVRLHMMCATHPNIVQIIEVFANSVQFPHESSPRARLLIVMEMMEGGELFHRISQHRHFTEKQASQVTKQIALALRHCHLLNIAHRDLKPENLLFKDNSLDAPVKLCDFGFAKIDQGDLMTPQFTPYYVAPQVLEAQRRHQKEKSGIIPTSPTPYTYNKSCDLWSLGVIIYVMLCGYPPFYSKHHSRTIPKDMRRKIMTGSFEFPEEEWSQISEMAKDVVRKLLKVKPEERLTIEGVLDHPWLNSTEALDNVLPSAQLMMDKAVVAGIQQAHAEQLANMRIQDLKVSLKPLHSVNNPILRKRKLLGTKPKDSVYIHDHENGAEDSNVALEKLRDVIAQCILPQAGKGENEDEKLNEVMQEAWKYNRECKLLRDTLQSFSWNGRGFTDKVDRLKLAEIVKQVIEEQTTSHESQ

Sequence of CAMK2G (Q13555 whole entry): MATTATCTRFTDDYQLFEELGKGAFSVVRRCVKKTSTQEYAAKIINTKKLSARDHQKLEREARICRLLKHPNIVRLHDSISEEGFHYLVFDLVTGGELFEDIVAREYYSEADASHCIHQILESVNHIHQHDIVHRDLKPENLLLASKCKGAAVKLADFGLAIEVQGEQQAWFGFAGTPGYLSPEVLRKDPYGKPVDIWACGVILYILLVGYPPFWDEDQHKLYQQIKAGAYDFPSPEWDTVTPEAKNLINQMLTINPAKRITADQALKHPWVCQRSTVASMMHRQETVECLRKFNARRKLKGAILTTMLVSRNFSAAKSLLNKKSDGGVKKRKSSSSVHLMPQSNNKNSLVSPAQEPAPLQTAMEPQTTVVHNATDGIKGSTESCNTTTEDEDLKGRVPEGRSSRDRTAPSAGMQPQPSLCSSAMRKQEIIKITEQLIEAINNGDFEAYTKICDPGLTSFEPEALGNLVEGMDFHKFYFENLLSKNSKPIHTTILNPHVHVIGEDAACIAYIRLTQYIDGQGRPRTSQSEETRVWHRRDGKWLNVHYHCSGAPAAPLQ
Sequence of OXSR1 (O95747 whole entry): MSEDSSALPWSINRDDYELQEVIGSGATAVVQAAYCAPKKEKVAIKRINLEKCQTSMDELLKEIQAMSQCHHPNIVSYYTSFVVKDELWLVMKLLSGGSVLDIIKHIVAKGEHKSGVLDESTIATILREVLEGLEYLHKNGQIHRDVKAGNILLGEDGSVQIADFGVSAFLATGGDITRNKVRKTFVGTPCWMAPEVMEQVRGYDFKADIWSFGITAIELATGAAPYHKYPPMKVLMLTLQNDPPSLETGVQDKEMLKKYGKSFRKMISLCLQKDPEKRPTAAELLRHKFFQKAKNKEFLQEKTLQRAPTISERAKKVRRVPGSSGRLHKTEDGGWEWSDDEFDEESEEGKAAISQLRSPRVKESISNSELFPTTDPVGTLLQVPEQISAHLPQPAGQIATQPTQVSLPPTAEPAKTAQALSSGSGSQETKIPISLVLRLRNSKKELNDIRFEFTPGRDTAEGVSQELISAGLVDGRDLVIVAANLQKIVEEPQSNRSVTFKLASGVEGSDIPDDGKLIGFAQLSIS
Sequence of ERN1 (O75460 whole entry): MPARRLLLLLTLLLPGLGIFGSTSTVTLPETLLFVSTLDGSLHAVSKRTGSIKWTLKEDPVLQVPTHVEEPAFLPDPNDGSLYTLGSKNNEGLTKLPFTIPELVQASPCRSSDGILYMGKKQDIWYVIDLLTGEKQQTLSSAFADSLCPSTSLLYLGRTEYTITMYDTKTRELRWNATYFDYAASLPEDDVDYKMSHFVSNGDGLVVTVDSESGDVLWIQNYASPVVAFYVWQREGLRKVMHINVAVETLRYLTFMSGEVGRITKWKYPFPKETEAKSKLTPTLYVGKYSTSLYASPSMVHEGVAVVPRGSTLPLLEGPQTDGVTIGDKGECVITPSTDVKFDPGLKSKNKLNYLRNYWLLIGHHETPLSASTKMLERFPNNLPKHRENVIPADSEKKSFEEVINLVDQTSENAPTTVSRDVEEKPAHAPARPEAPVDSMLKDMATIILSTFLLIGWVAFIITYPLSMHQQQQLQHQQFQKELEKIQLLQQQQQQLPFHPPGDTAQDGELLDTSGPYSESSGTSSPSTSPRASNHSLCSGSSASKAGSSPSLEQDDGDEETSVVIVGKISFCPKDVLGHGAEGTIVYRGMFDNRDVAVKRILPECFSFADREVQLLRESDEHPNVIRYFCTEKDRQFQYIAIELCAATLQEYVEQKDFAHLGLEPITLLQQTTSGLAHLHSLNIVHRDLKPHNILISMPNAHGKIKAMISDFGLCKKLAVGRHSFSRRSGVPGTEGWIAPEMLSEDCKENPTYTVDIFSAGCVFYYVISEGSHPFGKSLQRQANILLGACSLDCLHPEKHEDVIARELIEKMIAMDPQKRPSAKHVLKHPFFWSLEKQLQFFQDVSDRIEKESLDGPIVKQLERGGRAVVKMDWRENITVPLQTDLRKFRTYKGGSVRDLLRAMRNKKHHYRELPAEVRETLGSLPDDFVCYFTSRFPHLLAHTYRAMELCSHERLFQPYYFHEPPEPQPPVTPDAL
Sequence of AAK1 (Q2M2I8 whole entry): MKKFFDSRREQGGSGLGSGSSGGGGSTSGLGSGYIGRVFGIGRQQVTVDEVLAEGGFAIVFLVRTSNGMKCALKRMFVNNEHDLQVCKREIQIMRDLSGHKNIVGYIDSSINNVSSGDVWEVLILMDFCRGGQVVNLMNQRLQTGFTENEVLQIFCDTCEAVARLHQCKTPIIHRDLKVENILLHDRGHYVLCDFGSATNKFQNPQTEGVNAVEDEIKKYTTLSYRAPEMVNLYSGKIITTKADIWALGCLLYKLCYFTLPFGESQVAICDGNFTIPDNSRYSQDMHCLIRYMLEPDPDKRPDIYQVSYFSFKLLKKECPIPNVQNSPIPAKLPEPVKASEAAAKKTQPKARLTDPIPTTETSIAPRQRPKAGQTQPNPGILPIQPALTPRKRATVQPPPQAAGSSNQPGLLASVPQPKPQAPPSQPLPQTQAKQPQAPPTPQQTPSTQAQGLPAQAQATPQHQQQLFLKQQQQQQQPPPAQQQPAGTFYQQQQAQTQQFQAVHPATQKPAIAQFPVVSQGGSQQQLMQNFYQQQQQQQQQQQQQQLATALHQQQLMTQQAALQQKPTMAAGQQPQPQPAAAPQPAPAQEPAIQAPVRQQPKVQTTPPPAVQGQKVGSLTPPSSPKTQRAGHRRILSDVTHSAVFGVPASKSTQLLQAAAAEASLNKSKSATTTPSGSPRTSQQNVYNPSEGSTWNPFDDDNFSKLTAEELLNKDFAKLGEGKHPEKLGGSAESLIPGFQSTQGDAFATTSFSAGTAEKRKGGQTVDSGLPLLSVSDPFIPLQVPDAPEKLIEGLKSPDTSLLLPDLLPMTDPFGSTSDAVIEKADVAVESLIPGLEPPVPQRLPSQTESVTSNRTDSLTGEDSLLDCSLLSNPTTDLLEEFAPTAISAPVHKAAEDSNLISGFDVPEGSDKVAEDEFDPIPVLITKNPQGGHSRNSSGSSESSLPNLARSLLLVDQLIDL

In the case of `CN1CCN(c2ccc(Nc3ncc(C#N)c(Nc4ccccc4C(N)=O)n3)cc2)CC1.Cl` [TCMDC-134116], the pKd on AAK1 was 7.44; on BMPR2, 5.46 and 5.32; at CAMK2G, 6.47 and 6.53; on ERN1, 6.90; on OXSR1 it was 7.14 and 6.93; at PKMYT1 it was 6.05 and 6.22.

Take `CN(C)CC(O)COc1ccc(Nc2ncc([N+](=O)[O-])c(Nc3ccccc3O)n2)cc1.O=C(O)C(F)(F)F` (stereo not shown) [TCMDC-141399]: the pKd on MAPKAPK5 was 6.54.
